Reference: patent US6429222B2, “1-(p-thienylbenzyl)imidazoles as agonists of angiotensin (1-7) receptors, processes for their preparation, their use, and pharmaceutical preparations comprising them” (priority 1999, dated 2002)

Assays:
[1] = test system: isolated, working rat hearts; experiment: Test 3: Isolated, working rat hearts (Langendorff), coronary flow; parameters: species or system Wistar-Kyoto rats; conditions: 10^−6 mol/l; for Coronary flow: treated hearts, n=4
Excerpt: Pharmacol. 8 (Suppl. 10) (1986) S91-S99.
Test 3: Isolated, working rat hearts
Isolated hearts of Wistar-Kyoto rats (280-300 g body weight) are perfused with a constant perfusion pressure of 60 mmHg according to the method of Langendorff using an oxygen-saturated (95% O2, 5% CO2), nonrecirculating, modified Krebs-Henseleit buffer solution (118 mmol/l of NaCl, 4.7 mmol/l of KCl, 2.5 mmol/l of CaCl2, 1.6 mmol/l of MgSO4, 24.9 mmol/l of NaHCO3, 1.2 mmol/l of KH2PO4, 5.5 mmol/l of glucose, and 2.0 mmol/l of sodium pyruvate). For the measurement of the coronary flow, a catheter having an electromagnetic measuring head placed in the pulmonary artery was used. After a 15-minute equilibration period, the heart is converted into the working mode, in which a preload of 15 mmHg and an afterload of 60 mmHg is set. The working load of the heart remains constant during the entire test time of 90 minutes. Flow and pressure signals for the analysis are recorded by means of a PLUGSYS measuring system (Hugo Sachs Elektronik). The analysis of the data is carried out at a collection frequency of 500 Hz, averaged every 2 seconds, using the software Aquire Plus VI.21f (PO-NE-MAH).

[2] = test system: human platelet-rich plasma; experiment: Test 4: Collagen-induced platelet aggregation in human platelet-rich plasma; format: cell-based; conditions: collagen + 30 μM compound, 37° C., 20 min incubation, n=6; collagen alone 92±2.7%
Experimental: The action of compounds of formula (I) on collagen-induced platelet aggregation was investigated in human platelet-rich plasma, which is described, for example, in G.V. Born et al., Nature (1962).
Human platelet-rich plasma (PRP) from 6 blood donors was incubated with the test compound at 37° C. for 20 min, then activated with collagen, and the maximal aggregation of the platelets was quantified in % via light transmission.

## CCCCOC(=O)NS(=O)(=O)c1sc(CC(C)C)cc1-c1ccc(Cn2c(-c3ccccc3)nc(OC)c2C=O)cc1 [Example 2, 5-Formyl-4-methoxy-2-phenyl-1-[[4-[2-(n-butyloxycarbonylsulfonamido)-5-isobutyl-3-thienyl]phenyl]methyl]imidazole]
[1]; during the entire experiment
  heart rate: unchanged
[1]; time 0 min
  Coronary flow: 8.92 ± 0.68 mL/min
[1]; time 5 min
  Coronary flow: 11.29 ± 0.90 mL/min
[1]; time 10 min
  Coronary flow: 12.17 ± 0.74 mL/min
[1]; time 15 min
  Coronary flow: 12.22 ± 0.10 mL/min
[2]
  platelet aggregation: 52±5.7 % aggregation
